# Values of other authors as cited in article PMC11370232, “Repurposing of a library for high-content screening of inhibitors against Echinococcus granulosus” (Parasites & Vectors, 2024).
# pEC50, pIC50, pKi: −log10 of the molar value. Where a name gives a salt, the structure may show the parent alone.
# Legend:
# CDK1, 2, 4, 6 and 9 = system: CDK1, 2, 4, 6 and 9; design: method as in SelleckChem library description; conditions: read-out: IC50, CDK1, 2, 4, 6 and 9; cell-free assays; ref SelleckChem library description; cited from earlier work
# Akt3 = system: Akt3; design: method as in SelleckChem library description; conditions: ref SelleckChem library description; cited from earlier work
# ROCKII = system: ROCKII; design: method as in SelleckChem library description; conditions: ref SelleckChem library description; cited from earlier work
# Akt1 = system: Akt1; design: method as in SelleckChem library description; conditions: ref SelleckChem library description; cited from earlier work
# Akt2 = system: Akt2; design: method as in SelleckChem library description; conditions: ref SelleckChem library description; cited from earlier work
# PKA = system: PKA; design: method as in SelleckChem library description; conditions: ref SelleckChem library description; cited from earlier work
# p70S6K = system: p70S6K; design: method as in SelleckChem library description; conditions: ref SelleckChem library description; cited from earlier work
# ROCKI = system: ROCKI; design: method as in SelleckChem library description; conditions: ref SelleckChem library description; cited from earlier work
# HER2 = system: HER2; design: method as in SelleckChem library description; conditions: ref SelleckChem library description; cited from earlier work
# Pim2 = system: Pim2; design: method as in SelleckChem library description; conditions: ref SelleckChem library description; cited from earlier work
# Pim3 = system: Pim3; design: method as in SelleckChem library description; conditions: ref SelleckChem library description; cited from earlier work
# Pim1 = system: Pim1; design: method as in SelleckChem library description; conditions: ref SelleckChem library description; cited from earlier work
# DNA synthesis = target: DNA synthesis; design: method as in SelleckChem library description; conditions: cell-free assay; ref SelleckChem library description; cited from earlier work
# [1] = system: Rac1 in MDA-MB-435 and MDA-MB-231 cells; design: method as in SelleckChem library description; conditions: ref SelleckChem library description; cited from earlier work
# glucokinase (GK) = target: glucokinase (GK); design: method as in SelleckChem library description; conditions: ref SelleckChem library description; read-out: EC50, glucokinase activation; cited from earlier work
# Bcl-2 = target: Bcl-2; design: method as in SelleckChem library description; conditions: cell-free assay; ref SelleckChem library description; cited from earlier work
# EGFR = system: EGFR; design: method as in SelleckChem library description; conditions: ref SelleckChem library description; cited from earlier work
# PDGFR = system: PDGFR; design: method as in SelleckChem library description; conditions: ref SelleckChem library description; cited from earlier work
# EGFR(E746_A750) = system: EGFR(E746_A750); design: method as in SelleckChem library description; conditions: ref SelleckChem library description; cited from earlier work
# EGFR(L858R) = conditions: ref SelleckChem library description; cited from earlier work
compound,measurement,setting,value
NC[C@@](O)(c1ccc(Cl)cc1)c1ccc(-c2cn[nH]c2)cc1 [AT13148],pIC50,Akt3,7.30
same,pIC50,ROCKII,8.40
same,pIC50,Akt1,7.42
same,pIC50,Akt2,6.40
same,pIC50,PKA,8.52
same,pIC50,p70S6K,8.10
same,pIC50,ROCKI,8.22
CN(C)C/C=C/C(=O)Nc1cc2c(Nc3ccc(F)c(Cl)c3)ncnc2cc1O[C@H]1CCOC1 [Afatinib (BIBW2992) Dimaleate],pIC50,HER2,7.85
CN1CCCN(C(=O)c2cccc(-c3ccc(/C=C4/C(=O)Nc5ccc(Cl)cc54)o3)c2)CC1 [CX-6258 HCl],pIC50,Pim2,7.60
same,pIC50,Pim3,7.80
COc1cccc2c1C(=O)c1c(O)c3c(c(O)c1C2=O)C[C@@](O)(C(C)=O)C[C@@H]3O[C@H]1C[C@H](N)[C@H](O)[C@H](C)O1 [Daunorubicin HCl],pKi,DNA synthesis,7.70
CCn1c2ccccc2c2cc(Nc3ccnc(NCCCN4CCOCC4)n3)ccc21 [EHop-016],pIC50,[1],5.96
O=C(Nc1ncc(SCCN2CCCC2)s1)[C@]1(c2ccc(S(=O)(=O)C3CC3)cc2)C[C@H]1C1CCCCC1 [LY2608204],pEC50,glucokinase (GK),7.38
"COC1=CC(c2cc3ccccc3[nH]2)=N/C1=C\c1[nH]c(C)cc1C [Obatoclax Mesylate (GX15-070), Obatoclax Mesylate]",pKi,Bcl-2,6.66
CC(C)(C)c1cc(C=C(C#N)C#N)cc(C(C)(C)C)c1O [Tyrphostin 9],pIC50,EGFR,3.34
same,pIC50,PDGFR,6.30
C=CC(=O)Nc1cccc(Oc2nc(Nc3ccc(N4CCN(C)CC4)cc3)ncc2Cl)c1 [WZ3146],pIC50,EGFR(E746_A750),8.70
same,pIC50,EGFR(L858R),8.70
